Key:
[1] = Food-effect pharmacokinetic study, 600 mg oral Compound I, fed vs fasted (Example 4); format: in vivo, human (Japanese male volunteers)
Protocol: Administration, dosing, and sampling schedules were commensurate with those described in Example 1. […] Patients were administered two tablets of 300 mg each. The tablets were prepared as described in Example 1.

[2] = biological target: T1, cholesteryl ester transfer protein (CETP) (Homo sapiens, UniProt P11597); assay: CETP activity change from baseline after 900 mg oral Compound I, fed vs fasted (Example 2); format: in vivo, human (Caucasian male patients); conditions: mean
T1 construct: from tissue; host or cells: samples from dosed male patients (CETP is described as a plasma protein)
T1 sequence (P11597 18-493): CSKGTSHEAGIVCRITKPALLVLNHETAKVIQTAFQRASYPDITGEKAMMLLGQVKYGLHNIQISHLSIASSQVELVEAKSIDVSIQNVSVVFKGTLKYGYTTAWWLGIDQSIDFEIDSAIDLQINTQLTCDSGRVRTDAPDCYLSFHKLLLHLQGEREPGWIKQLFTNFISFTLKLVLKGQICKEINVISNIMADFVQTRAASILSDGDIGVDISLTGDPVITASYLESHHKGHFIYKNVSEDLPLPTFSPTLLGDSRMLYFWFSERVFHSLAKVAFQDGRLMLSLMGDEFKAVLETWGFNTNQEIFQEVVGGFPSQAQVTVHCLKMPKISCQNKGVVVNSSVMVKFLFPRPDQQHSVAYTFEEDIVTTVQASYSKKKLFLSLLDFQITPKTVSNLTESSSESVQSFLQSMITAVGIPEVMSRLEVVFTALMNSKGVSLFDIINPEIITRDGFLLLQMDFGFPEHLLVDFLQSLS
Protocol: Administration, dosing, and sampling schedules were substantially similar to those described in Example 1.
The procedure for determining CETP activity was substantially similar to the procedures described in Tollefson et al., Methods Enzymol., 129, 797-816 (1986), and Kato et al., J. Biol. Chem., 264, 4082-4087 (1989).
CETP activity and changes from baseline (pre-dose) were measured, and the resulting data is summarized in Table 2 as percentage change from baseline. The mean changes from baseline (pre-dose) in CETP activity over time are set out in the plot of FIG. 3.

CCC(CC)CC1(C(=O)Nc2ccccc2SC(=O)C(C)C)CCCCC1 [Compound I, S-[2-([[1-(2-ethylbutyl)cyclohexyl]carbonyl]amino)phenyl]2-methylpropanethioate]
AUC0-∞ times higher with food as compared to without food [1]: ~2 times
Percent change from pre-dose in CETP activity ([2]; Fasted, 1 h): 1%
Percent change from pre-dose in CETP activity ([2]; Fasted, 2 h): 2%
Percent change from pre-dose in CETP activity ([2]; Fasted, 4 h): −4%
Percent change from pre-dose in CETP activity ([2]; Fasted, 6 h): −10%
Percent change from pre-dose in CETP activity ([2]; Fasted, 8 h): −15%
Percent change from pre-dose in CETP activity ([2]; Fasted, 24 h): −10%
Percent change from pre-dose in CETP activity ([2]; Fed, 1 h): −1%
Percent change from pre-dose in CETP activity ([2]; Fed, 2 h): −16%
Percent change from pre-dose in CETP activity ([2]; Fed, 4 h): −44%
Percent change from pre-dose in CETP activity ([2]; Fed, 6 h): −59%
Percent change from pre-dose in CETP activity ([2]; Fed, 8 h): −58%
Percent change from pre-dose in CETP activity ([2]; Fed, 24 h): −34%
